In assay [1] the target is T1, sucrose transporter S21 (SoSUT1) (Spinacia oleracea, UniProt Q03411).
T1 construct: expressed in transfected cells; host or cells: Saccharomyces cerevisiae SUSY7
T1 sequence (Q03411 1-525): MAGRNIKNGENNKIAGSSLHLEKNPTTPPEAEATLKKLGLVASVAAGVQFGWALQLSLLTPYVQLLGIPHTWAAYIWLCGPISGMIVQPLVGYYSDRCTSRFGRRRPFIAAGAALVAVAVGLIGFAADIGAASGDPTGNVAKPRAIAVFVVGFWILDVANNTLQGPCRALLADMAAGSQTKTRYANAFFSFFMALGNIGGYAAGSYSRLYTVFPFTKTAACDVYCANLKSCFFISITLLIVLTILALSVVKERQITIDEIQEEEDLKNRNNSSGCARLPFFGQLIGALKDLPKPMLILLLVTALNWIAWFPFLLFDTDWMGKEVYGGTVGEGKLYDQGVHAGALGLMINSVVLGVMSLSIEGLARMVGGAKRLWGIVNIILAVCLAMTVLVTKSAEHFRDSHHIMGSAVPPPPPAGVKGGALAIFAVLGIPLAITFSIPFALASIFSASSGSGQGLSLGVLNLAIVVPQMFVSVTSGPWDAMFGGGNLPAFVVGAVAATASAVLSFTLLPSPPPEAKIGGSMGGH
The assay can be described thus: [14C]-sucrose uptake by yeast strain SUSY7 expressing the spinach sucrose transporter. Format: cell-based. To be noted: for remaining activity at 1000 µM: tested substance 1.0 mmol/l. On the procedure: Yeast cells of the strain SUSY7 (Riesmeier et al., 1992, EMBO J. 11: 4705-4713) are used to identify substances which have an inhibitory effect on sucrose transporters from spinach. Cells of this strain are transformed with a cDNA sequence which codes for the sucrose transporter S21 (SoSUT1) from spinach and which ensures expression of a functional transporter in the cells. The yeast cells are cultured in minimal medium (SD+2% (w/v) sucrose, pH 3.8) at 28° C. and harvested in the logarithmic phase (OD600 =0.6). The cells are spun down at 4000 rpm for 10 minutes and washed twice with SD medium. A cell concentration of c=50 g/l in SD medium is adjusted according to the wet weight of the cells, and 200 μl aliquot fractions are taken. Before the actual reaction, the cells are incubated in 10 mM glucose for 5 min and adjusted to pH 3.8 with MES buffer. The reaction is started by adding 200 μl of a 0.2 mmol/l [14C]-sucrose solution (3 mCi/mmol) in SD medium (pH 3.8). After 20, 60, 120, 180 and 240 seconds, 70 μl portions of the suspension are removed and pipetted into 4 ml of ice-cold water in order to stop the reaction. The cells are filtered off on glass fiber filters and washed twice with ice-cold water. The radioactivity on the filters is subsequently determined in a liquid scintillation counter. The substances to be tested are added 30 seconds before addition of the sucrose. The uptake of radiolabeled sucrose without addition of a potential inhibitor is determined as one control. Cells of the strain SUSY7 which are not transformed with cDNA sequences coding for a sucrose transporter from spinach are employed as further control.
The various tested substances, their concentration and the activity of the transporter, shown as percentage activity of the control in which no potential inhibitors were added, are indicated. Substances which specifically show an inhibitory effect on the sucrose transporter S21 (SoSUT1), are tested for their herbicidal and growth-regulating effect on whole plants.

Assay [2] has as its target T2, ammonium transporter AMT1 (Arabidopsis thaliana, UniProt P54144).
T2 construct: expressed in transfected cells; host or cells: Saccharomyces cerevisiae 26972c (mutations in MEP1 and MEP2)
T2 sequence (P54144 1-501): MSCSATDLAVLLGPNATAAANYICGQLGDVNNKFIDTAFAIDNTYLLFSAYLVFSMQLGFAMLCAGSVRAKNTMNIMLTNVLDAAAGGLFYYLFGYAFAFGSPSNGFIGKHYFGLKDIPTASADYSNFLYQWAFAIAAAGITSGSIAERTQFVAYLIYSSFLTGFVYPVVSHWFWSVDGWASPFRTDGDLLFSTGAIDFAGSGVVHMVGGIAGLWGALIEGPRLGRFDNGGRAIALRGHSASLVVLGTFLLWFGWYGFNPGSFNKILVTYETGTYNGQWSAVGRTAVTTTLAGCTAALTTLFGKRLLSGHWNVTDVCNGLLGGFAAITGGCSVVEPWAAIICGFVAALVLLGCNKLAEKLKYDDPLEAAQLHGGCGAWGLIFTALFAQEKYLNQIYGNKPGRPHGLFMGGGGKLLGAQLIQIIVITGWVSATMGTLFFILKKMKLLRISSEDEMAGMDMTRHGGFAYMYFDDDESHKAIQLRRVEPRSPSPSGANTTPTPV
The assay can be described thus: cell-based.
Description: The measurements of transport identify inhibitors of plant ammonium transporters are carried out with the structural analog methylamine because radiolabeled ammonium is not commercially obtainable.
The yeast cells are transformed by standard methods with cDNA sequences which code for an ammonium transporter from plants and which permit expression of a functional transporter in the yeast cells. […] The cells are cultured in NAAG-medium (2% glucose, 1.7 g/l yeast nitrogen-base w/o amino acids and ammonium sulfate (Difco), supplemented with 500 μg/ml L-proline) at 28 degrees Celsius, and harvested in the logarithmic phase (OD660.=0.6). The cells are then spun down in a centrifuge at 4000 rpm and 4 degrees Celsius for 10 minutes, washed twice with 20 mM sodium phosphate buffer, pH 7, and taken up in the same buffer to an 0D660 of 8. 200 μl aliquot fractions of the cell suspension are taken. 5 minutes before the actual measurement,the yeasts are activated by addition of 100 mM glucose and incubated at 30 degrees Celsius. To start the reaction, 100 μl of the cell suspension are added to 100 µl of reaction mixture (20 mM Na phosphate buffer, pH7; 18.5 kBq of [^14 C]-methylamine (NEN); 100 M methylamine; substance to be tested depending on the experiment (see FIG. 4)). In each case 10, 60, 120 and 180 seconds after starting the reaction, 50 μl aliquots are taken, added to 4 ml of ice-cold 5 mM methylamine solution and filtered on glass fibre filters. After the filters have been washed with a further 8 ml of a methylamine solution, the radioactivity on the filters is subsequently determined in a liquid scintillation counter. Inhibitors are added 60 seconds before adding the glucose.
The uptake of radiolabeled methylamine without addition of a potential inhibitor is determined as one control.

The target of assay [3] is T3, sucrose transporter P62 (StSUT1) (Solanum tuberosum, UniProt Q43653).
T3 construct: whole-cell [14C]-sucrose uptake; no tag or borders given
T3 sequence (Q43653 1-516): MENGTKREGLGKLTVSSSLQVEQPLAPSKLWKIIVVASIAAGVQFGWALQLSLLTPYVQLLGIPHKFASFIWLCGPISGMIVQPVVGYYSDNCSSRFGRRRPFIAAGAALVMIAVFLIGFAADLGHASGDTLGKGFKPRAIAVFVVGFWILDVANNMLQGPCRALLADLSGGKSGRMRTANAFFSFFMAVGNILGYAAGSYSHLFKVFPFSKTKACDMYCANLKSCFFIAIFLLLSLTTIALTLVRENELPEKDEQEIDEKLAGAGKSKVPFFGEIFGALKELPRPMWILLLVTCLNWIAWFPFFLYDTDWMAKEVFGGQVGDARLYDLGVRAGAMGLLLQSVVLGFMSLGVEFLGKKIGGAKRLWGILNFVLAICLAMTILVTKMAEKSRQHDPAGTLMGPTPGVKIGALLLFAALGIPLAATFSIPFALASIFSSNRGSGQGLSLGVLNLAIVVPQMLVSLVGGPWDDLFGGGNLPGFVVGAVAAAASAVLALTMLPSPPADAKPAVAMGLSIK
The assay can be described thus: [14C]-sucrose uptake by yeast strain SUSY-7-P62 (StSUT1) expressing the potato sucrose transporter. It is filed as cell-based. The following applies: [14C]-sucrose uptake, pH 3.8. An excerpt:
Yeast cells of the strain SUSY7 (Riesmeier et al., 1992, EMBO J. 11: 4705-4713) are used to identify substances which have an inhibitory effect on sucrose transporters from potato. Cells of this strain are transformed with a cDNA sequence which codes for the sucrose transporter P62 (StSUT1) from potato (WO 94/00574, Riesmeier et al., 1993, Plant Cell 5:1591-1598) and which ensures expression of a functional transporter in the cells. The resulting yeast strain was called SUSY-7-P62 (StSUT1). The yeast cells are cultured in minimal medium (SD +2% (w/v) sucrose, pH 3.8) at 28° C. and harvested in the logarithmic phase (OD600 =0.6). The cells are spun down at 4000 rpm for 10 minutes and washed twice with SD medium. A cell concentration of c=50 g/l in SD medium is adjusted according to the wet weight of the cells, and 200 Al aliquot fractions are taken. Before the actual reaction, the cells are incubated in 10 mM glucose for 5 min and adjusted to pH 3.8 with MES buffer. The reaction is started by adding 200 Al of a 0.2 mmol/l [14C]-sucrose solution (3 mCi/mmol) in SD medium (pH 3.8). After 20, 60, 120, 180 and 240 seconds, 70 μl portions of the suspension are removed and pipetted into 4 ml of ice-cold water in order to stop the reaction. The cells are filtered off on glass fiber filters and washed twice with ice-cold water. The radioactivity on the filters is subsequently determined in a liquid scintillation counter. The substances to be tested are added 30 seconds before addition of the sucrose. The uptake of radiolabeled sucrose without addition of a potential inhibitor is determined as one control. Cells of the strain SUSY7 which are not transformed with cDNA sequences coding for a sucrose transporter from potato are employed as further control.
The various tested substances, their concentration and the activity of the transporter, shown as percentage activity of the control in which no potential inhibitors were added, are indicated.

The mark [4] stands for this setting: [14C]-sucrose uptake, pH 3.8, tested substance 2 mM.
[5] abbreviates: [14C]-sucrose uptake, pH 3.8, read-out: Activity relative to the control [%].
Where [6] appears, read: [14C]-methylamine uptake, tested substance 500 μM.
Where [7] appears, read: [14C]-sucrose uptake, pH 3.8, tested substance 2 mM, read-out: Activity relative to the control [%].
[8] abbreviates: tested substance 2 mM, read-out: Activity relative to the control [%].
The mark [9] stands for this setting: pH 7, [14C]-methylamine uptake, tested substance 500 μM, read-out: Activity relative to the control [%].
[10] abbreviates: pH 7, read-out: Activity relative to the control [%].
Where [11] appears, read: pH 3.8, read-out: Activity relative to the control [%].

Like-named read-outs stand apart in the source and are kept apart here.

In the case of Altrose, the “Activity relative to the control [%]” value in assay [1] (setting [4]) came out at 80.6%.
`Nc1ncnc2c1ncn2C1CC=CC1CO` (stereo not drawn): the remaining activity at 1000 µM in assay [1] (setting [5]) is 0%.
Consider `[Cl-].[Rb+]` [RbCl], for which, in assay [2] (setting [6]), the “Activity relative to the control [%]” value came to 96%.
On the same count and under the same terms, as for `Cl.N` [NH4 Cl], the figure is 10%; as for `[Cl-].[Cs+]` [CsCl], 98%.
Consider `CCN1C(=O)C=CC1=O` [N-Ethylmaleimide], for which, in assay [3] (tested substance 1 mM, read-out: Activity relative to the control [%]), the remaining activity at 1000 µM was found to be 22%.
As to `OC[C@H]1O[C@H](OC[C@H]2O[C@H](O[C@]3(CO)O[C@H](CO)[C@@H](O)[C@@H]3O)[C@H](O)[C@@H](O)[C@@H]2O)[C@H](O)[C@@H](O)[C@H]1O` [Raffinose], the remaining activity at 2000 µM in assay [1] (setting [7]) and in assay [3] (setting [8]) was 110% each time.
On to `CN(C)C` [Trimethylamine], for which, in assay [2] (setting [9]), the remaining activity at 500 µM turned out to be 89%.
In the case of `OC[C@H]1O[C@H](Oc2ccccc2)[C@H](O)[C@@H](O)[C@@H]1O` [α-Phenylglucose], the “Activity relative to the control [%]” value in assay [1] (setting [4]) was determined as 8.0%; in assay [3] (tested substance 2 mM), 7%.
`CCN` [Ethylamine]: in assay [2] (setting [9]), the remaining activity at 500 µM was found to be 93%.
In the case of `OC[C@H]1O[C@@H](O[C@H]2[C@H](O)[C@@H](O)C(O)O[C@@H]2CO)[C@H](O)[C@@H](O)[C@@H]1O` (stereo partly drawn) [Cellobiose], the remaining activity at 2000 µM in assay [1] (setting [7]) amounted to 99.4%.
Consider `C(=NC1CCCCC1)=NC1CCCCC1` [DCCD], for which the remaining activity at 200 µM in assay [2] (pH 7, [14C]-methylamine uptake, tested substance 200 μM, read-out: Activity relative to the control [%]) stood at 15%.
For the compound `NC1CC(CO)C(O)C1O` (stereo not drawn), the remaining activity at 1000 µM in assay [1] (setting [5]) came out at 0%.
For the compound `[Cl-].[K+]` [KCl], the “Activity relative to the control [%]” value in assay [2] (setting [6]) turned out to be 98%.
As for `CNC` [Dimethylamine], the remaining activity at 500 µM in assay [2] (setting [10]) came to 89%.
Take `OC[C@H]1OC(O)[C@H](O)[C@@H](O)[C@H]1O` (stereo partly drawn) [Galactose]: the remaining activity at 2000 µM in assay [1] (setting [11]) amounted to 97.7%.
Consider Antimycin A, for which, in assay [2] ([14C]-methylamine uptake, tested substance 10 μg/ml), the “Activity relative to the control [%]” value was 8%.
As to `O=C(CO)[C@@H](O)[C@@H](O)[C@H](O)CO` [Tagatose], the remaining activity at 2000 µM in assay [1] (setting [7]) was 105%; in assay [3] (setting [8]), 103%.
As to `OC[C@H]1O[C@H](OC[C@H]2OC(O)[C@H](O)[C@@H](O)[C@@H]2O)[C@H](O)[C@@H](O)[C@H]1O` (stereo partly drawn) [Melibiose], the remaining activity at 2000 µM in assay [1] (setting [7]) came to 92.3%.
The same measure, in the same setting: as for `OC[C@H]1O[C@@](CO)(O[C@H]2O[C@H](CO)[C@@H](O)[C@H](O)[C@H]2O)[C@@H](O[C@H]2O[C@H](CO)[C@@H](O)[C@H](O)[C@H]2O)[C@@H]1O` [Melizitose], the figure is 97.2%.
For `C[C@@H]1C[C@@H]([C@H](O)CC2CC(=O)NC(=O)C2)C(=O)[C@@H](C)C1` [Cycloheximide], in assay [2] (setting [10]), the remaining activity at 10 µg/mL was 85%.
Regarding `OC[C@H]1O[C@@H](O[C@H]2[C@H](O)[C@@H](O)[C@@H](O)O[C@@H]2CO)[C@H](O)[C@@H](O)[C@H]1O` [α-Lactose], the remaining activity at 2000 µM in assay [1] (setting [7]) was determined as 81.8%.
As for `OC[C@H]1OC(O)[C@@H](O)[C@@H](O)[C@@H]1O` (stereo partly drawn) [Mannose], the remaining activity at 2000 µM in assay [1] (setting [11]) stood at 86.5%.
On to `OC[C@H]1O[C@@H](O[C@H]2[C@H](O)[C@@H](O)[C@H](O)O[C@@H]2CO)[C@H](O)[C@@H](O)[C@H]1O` [β-Lactose], for which the remaining activity at 2000 µM in assay [1] (setting [7]) came to 94.9%; in assay [3] (setting [8]) it was 91%.
Consider `O=C(CO)[C@@H](O)[C@H](O)[C@H](O)CO[C@H]1O[C@H](CO)[C@@H](O)[C@H](O)[C@H]1O` [Palatinose], for which the figures for the remaining activity at 2000 µM in assay [1] (setting [7]) and in assay [3] (setting [8]) were 85% and 102%, respectively.
